Structures are written as SMILES. Read-outs that look alike come from different tables or passages of the source. Where only a bound is given, the exact number is not on record here.

The target in data set [1] is neuraminidase from A/PR/8/34 (H1N1) (Influenza A virus, UniProt P03468). Nature of the data set: biochemical. The arrangement: species or system influenza A viruses.
In data set [2] the test system is phosphorylation of MEK1/2. Nature of the data set: Western blot of p-MEK1/2 in influenza-infected MDCK cells. The conditions noted are these: 20 μM, 10 h, all strains. The class given is cell-based, canine.
Data set [3] has as its system influenza vRNA (M gene). The class given is cell-based, influenza virus. To be noted: 20 μM, all virus strains, at 12 and 18 h, vs infected/untreated cells (0.5% DMSO).
Data set [4] deals with ERK phosphorylation. Nature of the data set: Western blot of p-ERK in influenza-infected MDCK cells. The class given is cell-based, canine. The conditions noted are these: 10 h; for viral-infection-induced ERK phosphorylation: 20 μM. For orientation: Immunoblotting shows a protein as a band on a membrane.
The test system of data set [5] is influenza RNP export from the nucleus to the cytoplasm. The data set is described as follows: Confocal fluorescence imaging of influenza RNP nuclear export. The class given is cell-based, influenza virus (H1N1). To be noted: 20 μM, H1N1-infected MDCK cells, 10 h. Here is the method:
MDCK cells were grown on a chamber slide, pre-coated with poly-L-lysine, and the monolayers were infected with influenza virus at 0.001 MOI for 1 h. The virus was removed and replaced by EMEM containing 10 μg/mL trypsin and each compound under test. All cells were cultured for 10 h at 37 °C in a 5% CO2 atmosphere and fixed in 4% paraformaldehyde solution for 15 min at room temperature. After washing, the cells were incubated at 37 °C for 1 h with an FITC-conjugated nucleoprotein (NP)-specific monoclonal antibody against influenza virus (Millipore, MA, USA) diluted at 1:50. After washing with PBS, cells were counterstained with 500 nM propidium iodide solution. Slides were mounted using the SlowFade Gold antifade reagent (Invitrogen, CA, USA). Confocal fluorescence imaging was performed using the Carl Zeiss LSM 510 META confocal microscope (Carl Zeiss Inc., Jena, Germany).
Figure 3 18-Hydroxyferruginol (1) and 18-oxoferruginol (2) inhibit the export of the influenza virus RNP complex from the nucleus to the cytoplasm. MDCK cells were infected with H1N1 at 0.001 MOI in the presence of 0.5% DMSO, 50 μM LY294002, 20 μM 18-hydroxyferruginol (1), or 20 μM 18-oxoferruginol (2). After 10 h, the cells were fixed in 4% paraformaldehyde. After blocking, the cells were incubated with the anti-NP antibody (green). Propidium iodide was used as a nuclear counterstain (red). Scale bar = 10 µm.

Data set [6] can be described thus: in vitro. The conditions noted are these: dog.
The test system of data set [7] is influenza virus NS1. The class given is cell-based.
Data set [8] deals with influenza vRNA (NP gene). The class given is cell-based, influenza virus.
The subject of data set [9] is A/Chicken/Korea/MS96/96 (H9N2). To be noted: dog.
In data set [10] the test system is A/Chicken/Korea/MS96/96 (H9N2). The data set is described as follows: microbe, parasite or virus in culture. To be noted: Influenza A virus, H9N2, MDCK, in Gallus gallus, 72 h.
For data set [11], the system named is A/Chicken/Korea/MS96/96 (H9N2). The data set is described as follows: in vitro. The conditions noted are these: dog, SI (selective index, CC50/IC50).
Data set [12] relates to influenza virus NP. The class given is cell-based.
Data set [13] concerns MDCK cells.
In data set [14] the test system is A/PR/8/34 (H1N1). Nature of the data set: microbe, parasite or virus in culture. To be noted: Influenza A virus, MDCK, 72 h.
Data set [15] deals with A/PR/8/34 (H1N1). The data set is described as follows: in vitro. To be noted: dog, SI (selective index, CC50/IC50).
Data set [16] deals with p-Akt (Serine 473). The data set is described as follows: Western blot of p-Akt in influenza-infected MDCK cells. The class given is cell-based, canine. The conditions noted are these: 20 μM, after viral infection, vs viral-infected/untreated cells.
For data set [17], the target named is neuraminidase from A/Chicken/Korea/MS96/96 (H9N2) (Influenza A virus (A/Chicken/Korea/MS96/96(H9N2)), UniProt Q9J458). The class given is biochemical, influenza A viruses. The conditions noted are these: read-out: Neuraminiase IC50.
The test system of data set [18] is A/PR/8/34 (H1N1). The conditions noted are these: dog.
For data set [19], the system named is A/Hong Kong/8/68 (H3N2). To be noted: dog.
Data set [20] deals with A/Hong Kong/8/68 (H3N2). Nature of the data set: microbe, parasite or virus in culture. The conditions noted are these: Influenza A virus, H3N2, MDCK, 72 h.
Data set [21] relates to A/Hong Kong/8/68 (H3N2). The data set is described as follows: in vitro. To be noted: dog, SI (selective index, CC50/IC50).
Setting [22] is: 20 μM, all three strains, 10 h after infection.

neuraminidase from A/PR/8/34 (H1N1), sequence (P03468 whole entry, looked up): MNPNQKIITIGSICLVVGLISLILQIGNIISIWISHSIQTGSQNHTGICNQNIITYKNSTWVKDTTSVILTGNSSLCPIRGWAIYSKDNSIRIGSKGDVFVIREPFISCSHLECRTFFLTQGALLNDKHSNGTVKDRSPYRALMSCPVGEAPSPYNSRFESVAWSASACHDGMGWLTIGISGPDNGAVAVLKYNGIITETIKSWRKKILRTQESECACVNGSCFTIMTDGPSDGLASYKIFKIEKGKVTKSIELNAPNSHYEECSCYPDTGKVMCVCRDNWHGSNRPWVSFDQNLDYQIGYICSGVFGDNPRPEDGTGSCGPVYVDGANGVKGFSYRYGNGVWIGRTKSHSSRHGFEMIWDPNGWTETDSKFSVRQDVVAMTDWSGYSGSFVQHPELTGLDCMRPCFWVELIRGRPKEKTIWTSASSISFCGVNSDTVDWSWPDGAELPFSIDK

`CC(C)c1cc2c(cc1O)[C@@]1(C)CCC[C@@](C)(CO)[C@@H]1CC2` [Compound 1, 18-hydroxyferruginol]: the IC50 (usually the concentration that gives 50% inhibition) was over 100 µM in data set [1], 12.8 ± 0.1 µM in [10], 13.6 ± 1.4 µM in data set [14] and 82.2 µM in data set [17]. Also, the “phosphorylation of MEK1/2 induced by infection” value in data set [2] is listed as “inhibited”. Moreover, in data set [3], the “decrease of influenza vRNA levels (M gene)” value is 65.3–91.6%. Moreover, the “viral-infection-induced ERK phosphorylation” value in [4] is given as “inhibited viral-infection-induced ERK phosphorylation”. Also, in [5], the “influenza RNP export from the nucleus to the cytoplasm” value is “reduction in influenza RNP export from the nucleus to the cytoplasm”. Also, the CC50 in data set [6] worked out at 35.5 ± 0.4 µM. Further, in data set [7], the “accumulation of viral protein NS1” value is “markedly decreased”. Besides, in data set [8] (setting [22]), the “reduction of influenza vRNA levels (NP gene)” value (from here on “reduction”) is reported as 2–2.5 fold. The results for the “SI (selective index, CC50/IC50)” value in [9] and in data set [18] were 2.77 and 2.61, respectively. Moreover, the figures for the selectivity ratio in data set [11] and in [15] were 1.79 and 1.68, respectively. For the same compound, the “levels of influenza virus NP” value in data set [12] was “reduction in the levels of influenza virus NP”. The “toxic effect on MDCK cells” value in [13] is on record as “no toxic effect”. Also, the p-Akt levels result in [16] is “decreased p-Akt levels”.

As to `CC(C)c1cc2c(cc1O)[C@@]1(C)CCC[C@@](C)(C=O)[C@@H]1CC2` [Compound 2, 18-oxoferruginol], the IC50 was over 100 µM in [1]; 10.8 ± 2.2 µM in data set [10]; 29.2 ± 1.9 µM in data set [20]; 18.3 ± 6.5 µM in [14]; over 100 µM in data set [17]. In addition, the “phosphorylation of MEK1/2 induced by infection” value in data set [2] is on record as “inhibited”. In [3], the “decrease of influenza vRNA levels (M gene)” value was 60.7–92.4%. The “viral-infection-induced ERK phosphorylation” value in data set [4] is listed as “inhibited viral-infection-induced ERK phosphorylation”. Further, the “influenza RNP export from the nucleus to the cytoplasm” value in data set [5] is given as “reduction in influenza RNP export from the nucleus to the cytoplasm”. Moreover, in data set [6], the CC50 was 41.2 ± 1.5 µM. Further, in [7], the “accumulation of viral protein NS1” value was “markedly decreased”. Also, the “reduction” value in data set [8] (setting [22]) is given as 2–3 fold. Besides, the figures for the “SI (selective index, CC50/IC50)” value in data set [9], in data set [19] and in data set [18] were 3.81, 1.41 and 2.25, respectively. The selectivity ratio in data set [11] worked out at 3.6; in [15], 2.13; in data set [21] it was 1.33. Further, the “levels of influenza virus NP” value in [12] is reported as “reduction in the levels of influenza virus NP”. Besides, the “toxic effect on MDCK cells” value in [13] was “no toxic effect”. For the same compound, the p-Akt levels result in [16] was “decreased p-Akt levels”.

Consider `O=c1cc(N2CCOCC2)oc2c(-c3ccccc3)cccc12` [LY294002, reference compound], for which the ERK phosphorylation result in data set [4] (50 μM) was “strongly inhibited ERK phosphorylation”. The “reduction” value in data set [8] (50 μM, all three strains, 10 h after infection) is 3.3–5.2 fold.

On to `CCOC(=O)C1=C[C@@H](OC(CC)CC)[C@H](NC(C)=O)[C@@H](N)C1` [Olseltamivir, oseltamivir, reference compound], for which, in [6], the CC50 is over 500 µM. For the same compound, the IC50 is under 0.7 µM in [10], 1.09 ± 0.5 µM in data set [20] and 1.35 ± 1.2 µM in data set [14].

For the compound `COc1cccc(-c2cc(=O)c3ccccc3o2)c1N` [PD98059, reference compound], the “reduction” value in [8] is 4.3–9.1 fold.

For the origin of these results see paper PMC10046907 (Current Issues in Molecular Biology, 2023).
